From US20230391748A1, “BICYCLIC INHIBITORS OF IRAK” (priority 2022, published 2023)
Where two headings read alike, the source gives them in different places.

How the values were obtained:
[1] = test system: TNF-α in Human Primary Monocyte-Derived Dendritic Cells; assay: Gardiquimod-Induced TNF-α in Human Primary Monocyte-Derived Dendritic Cells; format: cell-based; conditions: Dendritic cell
Description: Gardiquimod-Induced TNF-α in Human Primary Monocyte-Derived Dendritic Cells
After 2 hours, the media including floating cells was carefully removed and 12 ml of fresh RPMI media (10% FBS) containing GM-CSF (100 ng/ml) and IL-4 (20 ng/ml) were added to the adherent monocytes. The monocytes were allowed to differentiate for 7 days at 37° C., 5% CO2 for 7 days, supplementing with fresh GM-CSF and IL-4 after 3 days. The differentiated dendritic cells (DC) were harvested by centrifugation (1200 rpm/5 min). The DCs were primed at 37° C., 5% CO2 for 24 hours with 50 ng/ml IFN-γ (1000 U/ml) at 50K/well in 100 μl/well of fresh RPMI media (10% FBS) in a white clear bottom 96 well plate.
The primed DCs were pre-incubated with test compound for 1 hour at 37° C., 5% CO2 by adding 100 μl of RPMI media containing 2× concentrated test compound per well (0.5% final DMSO concentration).
DCs were stimulated with Gardiquimod (10 μl per well of 20× concentrated Gardiquimod solution in RPMI media to give a final concentration of 4 μg/ml) at 37° C., 5% CO2 for an additional 6 hours. The supernatant (100 μl/well) was harvested to measure TNF-α by ELISA. […] The chemiluminescence values were entered into Athena (Rigel) for curve fitting, EC50 calculation, and database storage.
(§1) TNF-α ELISA was performed according to the vendor protocol, using 96 Well Flat-Bottom, MaxiSorp Black Immuno plates and 100 μL/well of supernatant. The plates were developed using 100 μL/well of Super Signal ELISA Pico Chemiluminescent Substrate. The plates were read with a luminometer, and the chemiluminescence values were entered into Athena (Rigel) for curve fitting, EC50 calculation, and database storage.

TNF-α in human PBMCs = assay: R848-induced TNF-α in human PBMCs Assay; format: cell-based; conditions: PBMC
Description: R848-induced TNF-α in human PBMCs Assay
100 μL/well PBMCs (200K/well) were seeded in 96-well flat-bottom tissue culture plates. […] 100 μL/well 2× compound was added to the PBMC in the tissue culture plates. […] The cells were stimulated with R848 for an additional 4 hours at 37° C., 5% CO2. The supernatant (100 μl/well) was harvested to measure TNF-α by ELISA. […] The chemiluminescence values were entered into Athena (Rigel) for curve fitting, EC50 calculation, and database storage.
as §1

IL23p19 in THP-1 Cells = assay: LPS Induced IL23p19 in THP-1 Cells (with IFNγ Primed) Assay; format: cell-based; conditions: Homo sapiens
Description: LPS Induced IL23p19 in THP-1 Cells (with IFNγ Primed) Assay
On day 1, 50K/well THP-1 cells were seeded and primed with IFNγ (50 ng/mL) in 384-well plates for about 18 hours in RPMI media with 10% FBS. […] 50 μL/well 2× compound was added to 50 μL/well THP-1 cells (with IFNγ primed) in duplicate in 384 well tissue culture plates. […] Day 3, after stimulation for 18 hours at 37° C., 5% CO2, the assay plate was centrifuged and 70 μL/well supernatant was harvested. IL-23p19 protein in 70 µL/well of supernatant was measured by sandwich ELISA, and 25 μl/well Cell Titer Glo reagent was added to the remaining cells to measure compound toxicity.
Maxisorp immuno ELISA plates were pre-coated with 25 μL/well of anti-IL-23p19 capture antibody (2.5 ug/mL) in PBS overnight at room temperature. […] 25 μL/well of biotin labeled anti-IL-12(p40/p70) detection antibody (100 ng/mL) in PBS with 1% BSA was added and the plates were incubated at room temperature for 2 hours with shaking. […] The plates were read with a luminometer, and the chemiluminescence values were entered into Athena (Rigel) for curve fitting, EC50 calculation, and database storage.

IRAK4 = IRAK4 (Homo sapiens (Human), UniProt Q9NWZ3); assay: IRAK4 ADP-Glo Assay; format: biochemical; conditions: MBP substrate
IRAK4, sequence (Q9NWZ3 whole entry): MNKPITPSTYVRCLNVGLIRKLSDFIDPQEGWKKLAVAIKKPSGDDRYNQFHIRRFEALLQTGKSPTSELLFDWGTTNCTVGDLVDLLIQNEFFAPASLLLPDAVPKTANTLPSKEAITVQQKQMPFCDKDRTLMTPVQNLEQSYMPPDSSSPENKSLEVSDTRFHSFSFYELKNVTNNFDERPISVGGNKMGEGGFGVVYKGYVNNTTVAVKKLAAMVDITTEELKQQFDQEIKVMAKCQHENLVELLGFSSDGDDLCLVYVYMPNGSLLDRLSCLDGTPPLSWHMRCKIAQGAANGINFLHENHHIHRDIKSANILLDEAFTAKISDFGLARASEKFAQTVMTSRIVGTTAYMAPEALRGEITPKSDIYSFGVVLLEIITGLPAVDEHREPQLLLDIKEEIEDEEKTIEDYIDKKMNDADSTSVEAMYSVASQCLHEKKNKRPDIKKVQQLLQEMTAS
Description: The ADP-Glo™ reagents were thawed at ambient temperature. The Kinase Detection Reagent was prepared by mixing kinase detection buffer with the lyophilized kinase detection substrate, and set aside.
A stock volume of 5× Reaction Kinase Buffer was made with a final concentration of 100 mM MgCl2, 200 mM Tris-HCl, and 0.5 mg/ml of BSA, in distilled H2O with a final pH7.4. A 2× working stock volume of Reaction Kinase Buffer was made containing a final concentration of 100 μM DTT.
The components of IRAK4 Enzyme were thawed on ice. Diluted IRAK4 in 1× Kinase Reaction Buffer (diluted from 2× buffer) was prepared at 5.0 ng/μl.
Then diluted 1:5 in 2× Reaction Buffer in a 96 well plate. 1.0 μl was transferred to a 384 well plate in duplicate. […] 1 μl of 1 mg/ml stock solution of MBP substrate was added NOTE: MBP can be combined with ATP mix with equal volume and then added at 2 μl/well. Final reaction volume was 5 μl.
The plate was centrifuged and the reaction mixture was incubated at room temperature for 60 minutes or at 30° C. for 30 minutes.
The reaction was terminated and the remaining ATP was depleted by adding 5 μl of ADP-Glo™ Reagent. The 384-well plate was centrifuged and then the reaction mixture was incubated for another 40 minutes at ambient temperature.
10 μl of the Kinase Detection Reagent was added. The plate was centrifuged and then the reaction mixture was incubated for another 30 minutes at ambient temperature.
The 384-well reaction plate was read using the WALLAC plate reader (Luminescence 0.1s).

[2] = Homo sapiens, 4 h, read-out: TNFα (PBMC, R848) (IC50, μM)
[3] = THP-1, 18 h, read-out: IL23 (THP, LPS) (IC50, μM)
[4] = IFNγ-primed monocyte-derived dendritic cells, 4 μg/ml Gardiquimod, 6 hours, TNF-α ELISA, read-out: TNFα (DC, GARD) (IC50)

| Compound | IC50 ([1]; 6 h, read-out: TNFα (DC, GARD) (IC50, μM)) | IC50 (TNF-α in human PBMCs; [2]) | IC50 (IL23p19 in THP-1 Cells; [3]) | IC50 (IRAK4) | IC50 [1, 4] | IC50 (TNF-α in human PBMCs; human PBMCs, 65 ng/mL R848, 4 hours, TNF-α ELISA, read-out: TNFα (PBMC, R848) (IC50)) | IC50 (IL23p19 in THP-1 Cells; IFNγ-primed THP-1 cells, 1 μg/mL LPS, 18 hours, IL-23p19 ELISA, read-out: IL23 (THP, LPS) (IC50)) |
| --- | --- | --- | --- | --- | --- | --- | --- |
| CC(C)Oc1cc2c(OC[C@@H]3CCC(=O)N3)ncc(Br)c2cc1C(N)=O [Compound I-1, (S)-4-bromo-7-isopropoxy-1-((5-oxopyrrolidin-2-yl)methoxy)isoquinoline-6-carboxamide] | 2.64 µM | 2.61 µM | 9.48 µM | 34 nM |  |  |  |
| CC(C)Oc1cc2c(OC[C@@H]3CC(F)(F)C(=O)N3)ncc(Br)c2cc1C(N)=O [Compound I-2, (S)-4-bromo-1-((4,4-difluoro-5-oxopyrrolidin-2-yl)methoxy)-7-isopropoxyisoquinoline-6-carboxamide] |  | 1.15 µM | 5.53 µM | 4.4 nM | 5.34 µM |  |  |
| CC(C)Oc1cc2c(OC[C@@H]3CCC(=O)N3)ncc(C#CC(C)(C)O)c2cc1C(N)=O [Compound I-3, (S)-4-(3-hydroxy-3-methylbut-1-yn-1-yl)-7-isopropoxy-1-((5-oxopyrrolidin-2-yl)methoxy)isoquinoline-6-carboxamide] |  | 0.36 µM | 0.879 µM | 12.5 nM | 0.411 µM |  |  |
| CC(C)Oc1cc2c(OC[C@@H]3CCC(=O)N3)ncc(C#CC3(O)CCN(C)CC3)c2cc1C(N)=O [Compound I-14, (S)-4-((4-hydroxy-1-methylpiperidin-4-yl)ethynyl)-7-isopropoxy-1-((5-oxopyrrolidin-2-yl)methoxy)isoquinoline-6-carboxamide] |  | 3.93 µM |  | 5.4 nM | 7.87 µM |  |  |
| CC(C)Oc1cc2c(OC[C@@H]3CCC(=O)N3)ncc(C#CC3CCN(C(C)C)CC3)c2cc1C(N)=O [Compound I-19, (S)-7-isopropoxy-4-((1-isopropylpiperidin-4-yl)ethynyl)-1-((5-oxopyrrolidin-2-yl)methoxy)isoquinoline-6-carboxamide] |  |  | 0.124 µM | 6.7 nM | 0.618 µM |  |  |
| CC(C)Oc1cc2c(OC[C@@H]3CC(F)(F)C(=O)N3)ncc(C#CC3(O)CCN(C(=O)OC(C)(C)C)CC3)c2cc1C(N)=O [Compound I-52, tert-butyl (S)-4-((6-carbamoyl-1-((4,4-difluoro-5-oxopyrrolidin-2-yl)methoxy)-7-isopropoxyisoquinolin-4-yl)ethynyl)-4-hydroxypiperidine-1-carboxylate] |  | 0.338 µM | 4.57 µM |  | 0.927 µM |  |  |
| CC(C)Oc1cc2c(OC[C@@H]3CC(F)(F)C(=O)N3)ncc(C#CC3CN(C)C3)c2cc1C(N)=O [Compound I-64, (S)-1-((4,4-difluoro-5-oxopyrrolidin-2-yl)methoxy)-7-isopropoxy-4-((1-methylazetidin-3-yl)ethynyl)isoquinoline-6-carboxamide] |  | 0.0215 µM |  | 3.6 nM | 0.0286 µM |  |  |
| CC[C@@H]1[C@H](F)C(=O)N[C@@H]1COc1ncc(C#CC2CCOCC2)c2cc(C(N)=O)c(OC(C)C)cc12 [Compound I-79, 1-(((2S,3S,4S)-3-ethyl-4-fluoro-5-oxopyrrolidin-2-yl)methoxy)-7-isopropoxy-4-((tetrahydro-2H-pyran-4-yl)ethynyl)isoquinoline-6-carboxamide] |  |  | 0.0072 µM | 18.1 nM |  |  |  |
| CCO[C@H]1CC[C@H](C#Cc2cnc(OC[C@H]3NC(=O)[C@@H](F)[C@H]3CC)c3cc(OC(C)C)c(C(N)=O)cc23)CC1 [Compound I-80, 4-(((1r,4S)-4-ethoxycyclohexyl)ethynyl)-1-(((2S,3S,4S)-3-ethyl-4-fluoro-5-oxopyrrolidin-2-yl)methoxy)-7-isopropoxyisoquinoline-6-carboxamide] |  |  | 0.0105 µM | 390 nM |  |  |  |
| CCO[C@H]1CC[C@@H](C#Cc2cnc(OC[C@H]3NC(=O)[C@@H](F)[C@H]3CC)c3cc(OC(C)C)c(C(N)=O)cc23)CC1 [Compound I-81, 4-(((1s,4R)-4-ethoxycyclohexyl)ethynyl)-1-(((2S,3S,4S)-3-ethyl-4-fluoro-5-oxopyrrolidin-2-yl)methoxy)-7-isopropoxyisoquinoline-6-carboxamide] |  |  | 0.0163 µM | 463 nM |  |  |  |
| CC(C)Oc1cc2c(O[C@@H]3CCCNC3)ncc(C#CC3(O)CCCC3)c2cc1C(N)=O [Compound I-85, (R)-4-((1-hydroxycyclopentyl)ethynyl)-7-isopropoxy-1-(piperidin-3-yloxy)isoquinoline-6-carboxamide] |  | 2.08 µM | 1.96 µM |  | 4.86 µM |  |  |
| CC(C)Oc1cc2c(O[C@@H]3CCCN(C(=O)CC#N)C3)ncc(C#CC3(O)CCNCC3)c2cc1C(N)=O [Compound I-93, (R)-1-((1-(2-cyanoacetyl)piperidin-3-yl)oxy)-4-((4-hydroxypiperidin-4-yl)ethynyl)-7-isopropoxyisoquinoline-6-carboxamide] |  |  |  | 23 nM |  |  |  |
| CC(C)Oc1cc2c(O[C@@H]3CCCN(C(=O)CC#N)C3)ncc(C#CC3(O)CCN(C)CC3)c2cc1C(N)=O [Compound I-94, (R)-1-((1-(2-cyanoacetyl)piperidin-3-yl)oxy)-4-((4-hydroxy-1-methylpiperidin-4-yl)ethynyl)-7-isopropoxyisoquinoline-6-carboxamide] |  | 8.08 µM | 18.8 µM | 56.8 nM |  |  |  |
| CC(C)Oc1cc2c(O[C@@H]3CCCN(C(=O)OC(C)(C)C)C3)ncc(-c3cnn(C4CC4)c3)c2cc1C(N)=O [Compound I-107, tert-butyl (R)-3-((6-carbamoyl-4-(1-cyclopropyl-1H-pyrazol-4-yl)-7-isopropoxyisoquinolin-1-yl)oxy)piperidine-1-carboxylate] |  |  |  |  |  | 38.2 µM | 103 µM |
| CC(C)Oc1cc2c(O[C@@H]3CCCN(C(=O)CC#N)C3)ncc(-c3cnn(C4CCNCC4)c3)c2cc1C(N)=O [Compound I-122, (R)-1-((1-(2-cyanoacetyl)piperidin-3-yl)oxy)-7-isopropoxy-4-(1-(piperidin-4-yl)-1H-pyrazol-4-yl)isoquinoline-6-carboxamide] |  | 2.16 µM |  | 24 nM | 1 µM |  |  |
